What was measured:
5HT3A receptor [1] = biological target: T1, 5HT3A receptor (Mus musculus, UniProt P23979); assay: fluorescent ligand binding to surface-immobilized "native" vesicles (confocal fluorescence microscopy); conditions: individual discrete immobilized vesicles (n=3) from HEK293 cells; fit with Langmuir isotherm; read-out: dissociation constant Kd
T1 construct: Transient expression of the full wild-type receptor was achieved by co-transfection; expressed in transfected cells; host or cells: HEK293
T1 sequence (P23979 24-489): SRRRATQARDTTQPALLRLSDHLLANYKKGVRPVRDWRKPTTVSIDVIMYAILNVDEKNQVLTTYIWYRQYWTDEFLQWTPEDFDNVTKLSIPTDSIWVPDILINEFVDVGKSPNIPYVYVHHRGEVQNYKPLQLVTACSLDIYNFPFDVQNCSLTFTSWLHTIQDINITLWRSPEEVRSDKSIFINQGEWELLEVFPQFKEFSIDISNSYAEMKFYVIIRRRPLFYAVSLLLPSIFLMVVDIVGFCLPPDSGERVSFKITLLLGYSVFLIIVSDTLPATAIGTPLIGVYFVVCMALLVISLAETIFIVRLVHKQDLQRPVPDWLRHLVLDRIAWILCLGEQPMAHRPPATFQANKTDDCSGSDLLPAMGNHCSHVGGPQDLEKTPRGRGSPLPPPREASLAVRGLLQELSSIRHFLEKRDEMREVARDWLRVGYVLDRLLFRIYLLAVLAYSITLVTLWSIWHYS
Procedure: The ligand-binding experiments in surface-immobilized vesicles were carried out using the fluorescence-labeled ligand GR-Cy5. For these experiments, a homologous serotonin receptor construct 5HT3A was used that was expressed with an EGFP (Enhanced Green Fluorescent Protein, Clontech) fused at the end of a subunit. The prepared “native” vesicles were immobilized on cover glasses by means of physical adsorption of the vesicles to the glasses, by two-hour or overnight incubation of typically 400 μl of a vesicle preparation solution prepared according to the above method in 6-well plates with cover glasses on the bottom at 4° C. […]
The affinity of the fluorescent ligand for receptors bound to individual, discrete vesicles was determined by sequential addition of ascending concentrations of the fluorescent ligand to one and the same cover glass with vesicles immobilized thereon by overnight incubation. […]
The fluorescence intensities of the ligand were measured with a confocal fluorescence microscope (Zeiss, Laser Scanning Microscope LSM510), using a suitable filter set. The fluorescence signal of the GFP additionally incorporated into the vesicles was used in each case to adjust the microscope to the working distance of the plane in which the vesicles lay before the ligand was added. […]

5HT3A receptor [2] = biological target: T1, 5HT3A receptor; assay: competitive radiological binding assay with [3H]-GR65630, receptor in whole mother cells
5HT3A receptor [3] = biological target: T1, 5HT3A receptor; assay: competitive radiological binding assay with [3H]-GR65630, receptor in "native" vesicles in solution
Procedure: To this end, samples of said reagent were incubated with the vesicles in solution for 60 minutes at room temperature with 1.5 nM of the tritium-labeled ligand [^3H]-GR65630 in 240 μl HEPES buffer (10 mM HEPES, pH 7.4) (HEPES: 4-(2-hydroxyethyl)piperazine-1-ethanesulfonic acid) in 96-well MultiScreen plates (Millipore, F-Molsheim). The incubation was completed by rapid filtration followed by washing 3 times with 300 μl of ice-cold HEPES buffer each time. The filters were transferred to scintillation vessels and each taken up in 1 ml of Ultima Gold TM (Packard, meridan, USA). The radioactivity was measured using a TriCarb 2200CA liquid scintillation counter. The extent of nonspecific binding to the receptor and to the vesicles was estimated in the presence of a high surplus of quipazine (1 μM). The dissociation constant Kd was determined from Scatchard plots in 6 different concentrations of the ligand [^3H]-GR65630. […] All experiments were carried out in duplicate.

5HT3A serotonin receptor = biological target: T2, 5HT3A serotonin receptor (Mus musculus, UniProt P23979); assay: agonist-induced calcium signal (Fluo-3) in "native" vesicles with incorporated 5HT3A receptor; format: cell-based; conditions: 350 μM agonist; Fluo-3 loaded vesicles
T2 construct: expressed in transfected cells; host or cells: HEK cells
T2 sequence (P23979 24-489): T1 sequence (P23979 24-489)
Procedure: In this case, the original HEK cells from which the vesicles were obtained following the addition of cytochalasin according to the method described hereinabove were loaded with the acetoxymethyl ester of Fluo-3 as calcium indicator (generally 20 μg Fluo-3 in 500 μl DMEM/F12 medium). The prepared vesicles contained said fluorescent calcium indicator and parts of the endoplasmic reticulum in addition to the 5HT3A receptor.
Fluorescence excitation of the Fluo-3 was performed at 488 nm. The emission was measured at 500-530 nm. The vesicles loaded with Fluo-3 were then stimulated with 350 μM m-chlorophenylbiguanide hydrochloride (mCPG), a receptor-specific agonist. Stimulation was performed by addition of the agonist to the vesicle medium (t=0 sec). The maximum fluorescence signal that occurred through binding of the calcium to the calcium indicator Fluo-3 was already measured less than one minute after addition of the agonist. The value amounted to 35 μM free calcium ions in the vesicle interior, i.e. in the cytosol surrounded by the vesicle. With the aid of calcium indicator Fluo-3, free calcium ions are detected only in the cytosol (vesicle lumen) transferred from the cell of origin. Calcium ions in the endoplasmic reticulum or in other cell organelles or parts of cell organelles possibly included in the vesicle are not determined by this detection method.
The increase in the fluorescence signal up to its maximum value after less than one minute and the subsequent decrease in the fluorescence signal to its baseline value after a further 2 minutes, i.e. after a total of 3 minutes following addition of the agonist, is a sign of the intact functional capacity of the complete mechanism of the signal transduction cascade within the vesicle, i.e. of the ability of the vesicle to “buffer” the concentration of free calcium ions. This includes the action of sodium-calcium exchangers, in addition to the timespan until closure of the receptor's ion channel and desensitization mechanisms characteristic of serotonin.

[4] = HEK293 mother cells, competition with 1.5 nM [3H]-GR65630, 60 min, room temperature, read-out: pKi, receptor in mother cell (converted)
[5] = vesicles from HEK293 cells in solution, competition with 1.5 nM [3H]-GR65630, 60 min, room temperature, read-out: pKi, receptor in "native" vesicles (converted)
[6] = HEK293 mother cells, competition with 1.5 nM [3H]-GR65630, 60 min, room temperature
[7] = vesicles from HEK293 cells in solution, competition with 1.5 nM [3H]-GR65630, 60 min, room temperature

“1,2,3,9-tetrahydro-3-[(5-methyl-1H-imidazol-4-yl)methyl]-9-(3-amino-(N-rhodamineB-thiocarbamoyl)-propyl)-4H-carbazol-4-one [GR-Rho]” was tested, and the Kd (5HT3A receptor [1]) was 4.2 nM.

Work on `Cc1[nH]cnc1CC1CCc2c(c3ccccc3n2CCCN)C1=O` (stereo not shown) [GR-H] yielded a Ki (5HT3A receptor [2]) of 0.0631 nM and a Ki (5HT3A receptor [3]) of 0.2 nM.

Molecule `Cc1nccn1CC1CCc2c(c3ccccc3n2C)C1=O` (stereo not shown) [Ondansetron, 1,2,3,9-tetrahydro-9-methyl-3-[(2-methyl-1H-imidazol-1-yl)methyl]-4H-carbazol-4-one] has a Ki (5HT3A receptor [2]) of 3.16 nM and a Ki (5HT3A receptor [3]) of 2.51 nM.

Work on `N=C(N)NC(=N)Nc1ccccc1` [PBG, Phenylbiguanide] yielded a Ki (5HT3A receptor [2]; [4]) of 316 nM and a Ki (5HT3A receptor [3]; [5]) of 251 nM.

`c1ccc2nc(N3CCNCC3)ccc2c1` [Quipazine, 2-(1-Piperazinyl)quinoline] gave a Ki (5HT3A receptor [2]; [4]) of 0.501 nM and a Ki (5HT3A receptor [3]; [5]) of 0.398 nM.

`Cc1[nH]cnc1CCC(=O)c1cn(C)c2ccccc12` [[^3H]-GR65630] was tested, and the “pKi, receptor in mother cell” value (5HT3A receptor [2]; [6]) was 9.0 ± 0.1 and the “pKi, receptor in "native" vesicles” value (5HT3A receptor [3]; [7]) was 9.4 ± 0.1.

For `N=C(N)NC(=N)Nc1cccc(Cl)c1` [mCPBG, m-Chlorophenylbiguanide], the “pKi, receptor in mother cell” value (5HT3A receptor [2]; [6]) was 8.2 ± 0.1 and the “pKi, receptor in "native" vesicles” value (5HT3A receptor [3]; [7]) was 8.3 ± 0.1.

`Cl.N=C(N)NC(=N)Nc1cccc(Cl)c1` [mCPG, m-chlorophenylbiguanide hydrochloride] was tested, and the “free calcium ions in the vesicle interior at maximum fluorescence signal” value (5HT3A serotonin receptor) was 35 µM, the “time to maximum fluorescence signal after addition of the agonist” value (5HT3A serotonin receptor) was “less than one” and the “total time until decrease of fluorescence signal to baseline value after addition of the agonist” value (5HT3A serotonin receptor) was 3 min.

Reference: patent US20050019836A1, “Bioanalytical reagent, method for production thereof, sensor platforms and detection methods based on use of said bioanalytical reagent” (priority 2000, published 2005)
